In US20260242416A1, “ANTIMICROBIAL PEPTIDES” (priority 2023, published 2026):
Where a SMILES comes first, the peptide text is derived from it.

How the values were obtained:
[1] = test system: S. aureus ATCC 29213; type: cell-based, Staphylococcus aureus; conditions: ATCC 29213
Protocol: (§1) Bacteria were grown overnight at 37° C. in Mueller-Hinton Broth (MHB; Sigma-Aldrich, St. Louis. MO, USA) in a shaking incubator and aliquoted into cryovials with a 50% glycerol solution in a 1:1 ratio. No additives were added to the MHB during the growth of bacterial isolates. Glycerol stocks were stored at −80° C.
(§2) The antimicrobial activity of the putative AMPs was determined by a broth microdilution assay as described by the Clinical and Laboratory Standards Institute, with the published adaptations for testing of cationic peptides. Escherichia coli 25922 and Staphylococcus aureus 29213 isolates were purchased from the American Type Culture Collection (ATCC; Manassas, VA, USA). A human clinical isolate of Salmonella enterica serovar Enteritidis was provided by the BC Centre for Disease Control. Bacteria from stocks stored at −80° C. were streaked onto nonselective Columbia blood agar with 5% sheep blood (Oxoid) and incubated overnight at 37° C. Next, 2-4 colonies were streaked onto a new agar plate to ensure uniform health of colonies used in the broth microdilution assay. Isolated colonies were suspended in MHB and the optical density was measured with a spectrophotometer to create an initial inoculum concentration of approximately 1×10^8 cfu/mL. The inoculum was diluted 1:250 to a final concentration of 2-8×10^5 cfu/mL, which was confirmed by performing a Total Viability Count (TVC). The TVC consisted of plating a 1:1000 dilution of the final inoculum on nonselective media and was also used to confirm the health and purity of the inoculum in each trial.
(§3) Lyophilized 80 μg peptide aliquots synthesized by GenScript (Piscataway, NJ, USA) were resuspended to 1.28 mg/mL with UltraPure water (Thermo Fisher Scientific, Waltham, MA, USA) and serially diluted in polypropylene 96-well microtiter plates (Greiner Bio-One #650261, Kremsmunster, Austria) from 128 down to 0.5 μg/mL. Two columns per plate were reserved for growth and sterility controls. Inoculum was added to the wells containing the peptide and the growth control. Plates were incubated for 20-24 h at 37° C. The minimum inhibitory concentration (MIC) was determined as the lowest peptide concentration where there was no visible bacterial growth.

[2] = test system: E. coli ATCC 25922; type: cell-based, Escherichia coli; conditions: ATCC 25922
Protocol: as §1, §2, §3

[3] = test system: Salmonella enterica serovar Enteritidis (human clinical isolate); type: cell-based; conditions: serovar Enteritidis (human clinical isolate)
Protocol: as §1, §2, §3

CC[C@H](C)[C@H](NC(=O)[C@H](CC(C)C)NC(=O)[C@H](CO)NC(=O)[C@H](CCCCN)NC(=O)[C@H](CC(C)C)NC(=O)[C@@H](NC(=O)[C@H](Cc1ccc(O)cc1)NC(=O)[C@H](CCCNC(=N)N)NC(=O)[C@H](CCCNC(=N)N)NC(=O)[C@H](Cc1c[nH]cn1)NC(=O)[C@H](CCCNC(=N)N)NC(=O)[C@H](CCC(=O)O)NC(=O)[C@H](Cc1c[nH]cn1)NC(=O)[C@H](CCCNC(=N)N)NC(=O)[C@H](CC(C)C)NC(=O)[C@H](CCCCN)NC(=O)[C@@H](NC(=O)[C@H](Cc1c[nH]cn1)NC(=O)[C@H](Cc1c[nH]cn1)NC(=O)[C@H](Cc1c[nH]cn1)NC(=O)[C@@H](N)CCCCN)[C@@H](C)CC)[C@@H](C)CC)C(=O)O [ApMe4] (H-KHHHIKLRHERHRRYILKSLI-OH; N-terminus and C-terminus assumed)
>128/>128/>128 ug/mL: MIC (ug/mL) S. aureus [1] | MIC (ug/mL) E. coli [2] | MIC (ug/mL) S. Enteritidis [3]

CC[C@H](C)[C@H](NC(=O)[C@H](CCCNC(=N)N)NC(=O)[C@@H](NC(=O)[C@@H]1CCCN1C(=O)[C@H](CCCNC(=N)N)NC(=O)[C@@H](NC(=O)[C@@H]1CCCN1C(=O)[C@H](CCC(N)=O)NC(=O)[C@H](CC(C)C)NC(=O)CNC(=O)[C@@H]1CCCN1C(=O)[C@@H]1CCCN1C(=O)[C@@H](NC(=O)[C@H](CCCCN)NC(=O)[C@H](Cc1c[nH]c2ccccc12)NC(=O)[C@H](C)NC(=O)[C@@H](NC(=O)[C@H](C)N)[C@@H](C)O)C(C)C)[C@@H](C)CC)[C@@H](C)CC)C(=O)N[C@@H](CCCNC(=N)N)C(=O)N1CCC[C@H]1C(=O)N[C@@H](CC(C)C)C(=O)N[C@@H](CS)C(=O)NCC(=O)N[C@@H](CC(N)=O)C(=O)N[C@@H](CC(=O)O)C(=O)N[C@@H](CCCCN)C(=O)N[C@@H](CO)C(=O)O [PeNi16] (H-ATAWKVPPGLQPIRPIRIRPLCGNDKS-OH; N-terminus and C-terminus assumed)
>128/>128/>128 ug/mL: MIC (ug/mL) S. aureus [1] | MIC (ug/mL) E. coli [2] | MIC (ug/mL) S. Enteritidis [3]

CC[C@H](C)[C@H](N)C(=O)N[C@H](C(=O)N[C@@H](CCCNC(=N)N)C(=O)N[C@@H](C)C(=O)N[C@H](C(=O)N[C@@H](C)C(=O)N[C@@H](C)C(=O)N[C@@H](CCC(=O)O)C(=O)N[C@@H](CS)C(=O)N[C@@H](CC(C)C)C(=O)N[C@@H](CCCCN)C(=O)N[C@@H](Cc1c[nH]cn1)C(=O)N1CCC[C@H]1C(=O)N[C@@H](Cc1c[nH]c2ccccc12)C(=O)N[C@@H](CC(C)C)C(=O)N[C@@H](CCCCN)C(=O)N[C@H](C(=O)N[C@@H](CCCCN)C(=O)N[C@@H](CCCCN)C(=O)O)[C@@H](C)CC)[C@@H](C)O)[C@@H](C)CC [BoAr3, IIRATAAECLKHPWLKIKK] (H-IIRATAAECLKHPWLKIKK-OH; N-terminus and C-terminus assumed)
>128/>128/>128 ug/mL: MIC (ug/mL) S. aureus [1] | MIC (ug/mL) E. coli [2] | MIC (ug/mL) S. Enteritidis [3]

CC[C@H](C)[C@H](NC(=O)[C@H](CC(=O)O)NC(=O)[C@H](CO)NC(=O)[C@H](CC(C)C)NC(=O)[C@@H]1CCCN1C(=O)[C@@H](N)[C@@H](C)O)C(=O)N[C@@H](Cc1ccccc1)C(=O)N[C@@H](CCCNC(=N)N)C(=O)NCC(=O)N[C@@H](CCC(N)=O)C(=O)N[C@@H](CC(C)C)C(=O)N[C@@H](CCCNC(=N)N)C(=O)N[C@@H](CO)C(=O)N[C@@H](CCCNC(=N)N)C(=O)N[C@H](C(=O)N[C@@H](CO)C(=O)N[C@@H](CCCNC(=N)N)C(=O)O)C(C)C [NaVi1, TPLSDIFRGQLRSRVSR] (H-TPLSDIFRGQLRSRVSR-OH; N-terminus and C-terminus assumed)
>128/>128/>128 ug/mL: MIC (ug/mL) S. aureus [1] | MIC (ug/mL) E. coli [2] | MIC (ug/mL) S. Enteritidis [3]

CC(C)C[C@H](NC(=O)[C@H](Cc1ccccc1)NC(=O)[C@H](CC(C)C)NC(=O)[C@H](CCCCN)NC(=O)[C@H](Cc1c[nH]cn1)NC(=O)[C@@H](NC(=O)[C@H](Cc1ccccc1)NC(=O)[C@H](CO)NC(=O)[C@H](CC(C)C)NC(=O)[C@@H](NC(=O)[C@H](C)N)C(C)C)C(C)C)C(=O)N[C@@H](CC(N)=O)C(=O)N[C@@H](Cc1ccccc1)C(=O)N[C@@H](CC(C)C)C(=O)N[C@@H](Cc1c[nH]cn1)C(=O)N[C@H](C(=O)N[C@@H](CC(=O)O)C(=O)N[C@H](C(=O)N[C@@H](CO)C(=O)N[C@@H](CCCCN)C(=O)NCC(=O)N[C@@H](CCCCN)C(=O)N[C@@H](CS)C(=O)N[C@@H](CCCNC(=N)N)C(=O)N[C@@H](C)C(=O)N[C@H](C(=O)N[C@@H](CC(C)C)C(=O)N[C@@H](CCC(N)=O)C(=O)O)[C@@H](C)O)[C@@H](C)O)C(C)C [TeRu3] (H-AVLSFVHKLFLNFLHVDTSKGKCRATLQ-OH; N-terminus and C-terminus assumed)
>128/>128/>128 ug/mL: MIC (ug/mL) S. aureus [1] | MIC (ug/mL) E. coli [2] | MIC (ug/mL) S. Enteritidis [3]

CC[C@H](C)[C@H](NC(=O)[C@H](CCCCN)NC(=O)[C@H](CCCNC(=N)N)NC(=O)[C@H](C)NC(=O)[C@@H](N)CCCNC(=N)N)C(=O)N[C@@H](CCCNC(=N)N)C(=O)N[C@@H](CCCNC(=N)N)C(=O)N[C@@H](CCCNC(=N)N)C(=O)N[C@@H](CCCNC(=N)N)C(=O)NCC(=O)N[C@@H](CO)C(=O)N[C@@H](CC(C)C)C(=O)N[C@@H](CCCNC(=N)N)C(=O)N[C@@H](Cc1c[nH]cn1)C(=O)N[C@@H](CS)C(=O)N[C@H](C(=O)N[C@H](C(=O)N[C@H](C(=O)N1CCC[C@H]1C(=O)N[C@@H](CO)C(=O)N[C@H](C(=O)N1CCC[C@H]1C(=O)N[C@@H](CO)C(=O)NCC(=O)N[C@@H](CCCNC(=N)N)C(=O)O)[C@@H](C)O)[C@@H](C)CC)[C@@H](C)O)C(C)C [ApMe6] (H-RARKIRRRRGSLRHCVTIPSTPSGR-OH; N-terminus and C-terminus assumed)
>128/>128/>128 ug/mL: MIC (ug/mL) S. aureus [1] | MIC (ug/mL) E. coli [2] | MIC (ug/mL) S. Enteritidis [3]

N=C(N)NCCC[C@H](NC(=O)[C@H](CCCNC(=N)N)NC(=O)[C@H](CO)NC(=O)[C@H](CCCNC(=N)N)NC(=O)[C@H](Cc1c[nH]cn1)NC(=O)[C@H](CO)NC(=O)[C@H](Cc1c[nH]c2ccccc12)NC(=O)[C@H](CCCNC(=N)N)NC(=O)[C@@H]1CCCN1C(=O)[C@@H](N)CCCNC(=N)N)C(=O)O [PeNi18, RPRWSHRSRR] (H-RPRWSHRSRR-OH; N-terminus and C-terminus assumed)
>128/>128/>128 ug/mL: MIC (ug/mL) S. aureus [1] | MIC (ug/mL) E. coli [2] | MIC (ug/mL) S. Enteritidis [3]

CC[C@H](C)[C@H](NC(=O)[C@H](C)NC(=O)[C@H](Cc1ccccc1)NC(=O)[C@H](C)NC(=O)[C@H](C)NC(=O)[C@@H](N)C(C)C)C(=O)N[C@H](C(=O)NCC(=O)N[C@@H](CS)C(=O)N[C@@H](CC(C)C)C(=O)N[C@@H](CS)C(=O)N[C@@H](CS)C(=O)N[C@@H](CCCNC(=N)N)C(=O)N[C@@H](CCCNC(=N)N)C(=O)N1CCC[C@H]1C(=O)N[C@@H](CCCNC(=N)N)C(=O)N[C@@H](CCCNC(=N)N)C(=O)O)[C@@H](C)CC [PoRo1, VAAFAIIGCLCCRRPRR] (H-VAAFAIIGCLCCRRPRR-OH; N-terminus and C-terminus assumed)
>128/>128/>128 ug/mL: MIC (ug/mL) S. aureus [1] | MIC (ug/mL) E. coli [2] | MIC (ug/mL) S. Enteritidis [3]

CC(C)C[C@H](NC(=O)[C@H](C)NC(=O)[C@@H](N)Cc1c[nH]c2ccccc12)C(=O)N[C@@H](CCCNC(=N)N)C(=O)N[C@@H](Cc1c[nH]c2ccccc12)C(=O)N[C@@H](CCCCN)C(=O)N[C@H](C(=O)N[C@@H](CCCNC(=N)N)C(=O)O)[C@@H](C)O [PaVi1, WALRWKTR] (H-WALRWKTR-OH; N-terminus and C-terminus assumed)
>128/>128/>128 ug/mL: MIC (ug/mL) S. aureus [1] | MIC (ug/mL) E. coli [2] | MIC (ug/mL) S. Enteritidis [3]

CC(C)C[C@H](NC(=O)CNC(=O)[C@H](CO)NC(=O)[C@H](CO)NC(=O)[C@H](CO)NC(=O)[C@H](CO)NC(=O)[C@H](CC(C)C)NC(=O)[C@@H]1CCCN1C(=O)[C@H](CO)NC(=O)[C@H](CC(C)C)NC(=O)[C@H](CO)NC(=O)[C@@H](N)CO)C(=O)NCC(=O)N[C@@H](CCCCN)C(=O)N[C@@H](CCCCN)C(=O)N[C@@H](CCCCN)C(=O)N[C@@H](CCCCN)C(=O)N[C@@H](CCCNC(=N)N)C(=O)N[C@@H](CCCCN)C(=O)N[C@@H](CO)C(=O)N[C@@H](CCCCN)C(=O)N[C@@H](CCCNC(=N)N)C(=O)N[C@@H](C)C(=O)N[C@@H](CO)C(=O)N[C@@H](CCCNC(=N)N)C(=O)O [NaVi2] (H-SSLSPLSSSSGLGKKKKRKSKRASR-OH; N-terminus and C-terminus assumed)
>128/>128/>128 ug/mL: MIC (ug/mL) S. aureus [1] | MIC (ug/mL) E. coli [2] | MIC (ug/mL) S. Enteritidis [3]
